Patent US20180238860A1, “INDIVIDUAL METHOD PREDICTIVE OF THE DNA-BREAKING GENOTOXIC EFFECTS OF CHEMICAL OR BIOCHEMICAL AGENTS” (priority 2015, published 2018)

Key:
[1] = test system: pH2AX nuclear foci (DNA double-strand breaks); assay: Single toxicity scale: reference concentration Cref and risk group prediction from NpH2AX(24 h); format: cell-based, human; conditions: for Reference concentration Cref: NpH2AX(24 h) < 2; for Prediction based on algorithm: concentration above which “Group III” risk: NpH2AX(24 h) > 8
Description: (i) if the reference concentration has not previously been determined by the chemical or biochemical agent to be studied, a cell sample is prepared by dispersion and/or amplification of so-called reference cells (sensitivity group I); a plurality of concentrations within a broad concentration range of said breaking agent (said concentration range ranging for example from nM to mM) is applied for a predetermined period of time (preferably 24 hours) on this cell sample; pH2AX immunofluorescence is performed with DAPI counterstaining which also enables on the same cell sample the analysis of micronuclei for all the concentrations applied.
(ii) Either the mean number of nuclear foci observed with the marker pH2AX at the observation times t and at the concentration C (this mean number being referred to as NpH2AX(t, C)), or the mean number of micronuclei per 100 cells at the observation times t and at the concentration C (this mean number being referred to as NMN(t, C)), or the standard error a corresponding to the error committed on these respective measurements which must be performed on at least 50 nuclei once (Gaussian standard error) or 3 independent experiments of 50 nuclei (standard error of the mean).
(iii) The so-called reference concentration Cref is the concentration giving:
NpH2AX(24 h,Cref)+2σ=2 or indeed NMN(24 h,Cref)+2σ=2%;
If for the cell sample NpH2AX(24 h, Cref)<=2 or NMN(24 h, Cref)<=0.5%, preferably NMN(24 h, Cref)<=1% or even more preferentially NMN(24 h, Cref)<=2%, then the genotoxic risk is considered to be low or described as “Group I”
The experimental data presented in table 4 above were used to determine the reference concentration Cref particularly for Pb(NO3)2 (Cref<1 μM) and CdCl2 (Cref=10 μM).
Table 5 presents numerical examples of correspondence between the single toxicity scale according to the invention and the corresponding clinical signs.

humans exposed = conditions: cited from earlier work
HMEC cells [2] = assay: pH2AX foci 24 h after contacting, Table 4 lower part (HMEC endothelial cells); format: cell-based, human; conditions: line cell blank (below Hasp), 24 hours after contacting
Description: (§1) In one embodiment, on receipt, the tissue sample (typically the biopsy) is established in the form of an amplifiable cell line without a viral or chemical transformation agent according to an ancillary procedure well known to culture laboratories, as underlined by the publication of Elkind et al. “The radiobiology of cultured mammalian cell”, Gordon and Breach (1967). Once the number of cells is sufficient (typically after 1 to 3 weeks), the first experiments are carried out using the process according to the invention. A cell sample is prepared: The cells are inoculated on glass coverslips in Petri dishes. A portion of these coverslips are contaminated with metals or pesticides or any other DNA-breaking chemical or biochemical agent at different concentrations. A further portion is not contaminated; it represents the spontaneous state. During contamination, the cells remain in the culture incubator at 37° C.
For the contaminated cells, characteristics are acquired corresponding to the state after an incubation time with the DNA-breaking chemical or biochemical agent. Said characteristics are represented by foci corresponding to the marker pH2AX. The cells on glass coverslips are then fixed, lysed and hybridized. The following procedure, known per se (Bodgi et al, “A single formula to describe radiation-induced protein relocalization: towards a mathematical definition of individual radiosensitivity”, J Theor Biol. 21 p 333:135-45.2013):
(§2) the cells are fixed in 3% paraformaldehyde and 2% sucrose for 15 minutes at ambient temperature and permeabilized in 20 mM HEPES buffer solution (4-(2-hydroxyethyl)-1-piperazine ethane sulfonic acid) at pH 7.4, 50 mM NaCl, 3 mM MgCl2, 300 mM sucrose, 0.5% Triton X-100 (a non-ionic surfactant having the formula t-Oct-C6H4-(OCH2CH2)×OH where x=9-10, CAS No. 9002-93-1, supplied for example by Sigma Aldrich) for 3 minutes. The glass coverslips are then washed in phosphate buffer saline (known as the acronym PBS) before immunological staining. The incubation took place for 40 min at 37° C. in PBS supplemented with 2% bovine serum albumin (known as the acronym BSA or fraction V, supplied for example by Sigma Aldrich) and was followed by a wash with PBS. Anti-pH2AX primary antibodies are used at a concentration of 1:800. The incubations with anti-mouse FITC or anti-rabbit TRITC secondary antibodies (1:100, supplied by Sigma Aldrich) were performed at 37° C. in 2% BSA for 20 minutes. Glass coverslips were treated with Vectashield™ containing DAPI (4,6-Diamidino-2-phenylindole) to label the nucleus. Staining with DAPI also makes it possible, indirectly, to determine the number of cells in phase G1 (nuclei with homogenous DAPI staining), in phase S (nuclei with numerous pH2AX foci), in phase G2 (nuclei with heterogeneous DAPI staining) and metaphases (visible chromosomes).
The results are acquired using these coverslips on an immunofluorescence microscope (Olympus model for example). The reading may be direct (typically by counting the foci on at least 50 cells in G0/G1 for each point) or using dedicated image analysis software, or on an automated microscope; preferably the software or automated microscope methods are calibrated with manual determinations.
(§3) The tables hereinafter summarize the results of numerous experiments which were carried out as described in the “Detailed description” section above.
(§4) In tables 3 and 4, “pH2AX” corresponds to the mean number of nuclear foci obtained with the marker pH2AX, 24 hours after contacting the cell sample with the chemical agent at the concentration C (NpH2AX(24 h, C)), and where “Micronuclei” corresponds to the mean number of micronuclei observed per 100 cells 24 hours after contacting the cell sample with the chemical agent at the concentration C(NMN(24 h, C)).

HMEC cells [3] = assay: Micronuclei per 100 cells 24 h after contacting, Table 4 lower part (HMEC); format: cell-based, human; conditions: line cell blank (below Hasp)
Description: as §1, §2
Counterstaining with DAPI (a DNA marker known to those skilled in the art) makes it possible to locate the nucleus to situate the cytoplasmic or nuclear location to quantify the micronuclei, which are complementary cell markers to the data on the foci.
as §3, §4

## [Na+].[Na+].[O]=[Cr](=[O])([O-])[O-] [Chromium, Na2CrO4]
[1]
  Reference concentration Cref: 0.003 µM
  Prediction based on algorithm: concentration above which “Group III” risk: predicted above 30 nM
Humans exposed; Hinkley USA
  Cases of poisoning, concentration in tap water (estimated): concentration in tap water was estimated at 23 Nm
  Cases of poisoning, concentration in well water: 1.19 g/L
  Cases of poisoning, concentration in well water, equivalent: 4.6 mM

## O=[N+]([O-])[O-].O=[N+]([O-])[O-].[Pb+2] [Pb(NO3)2]
HMEC cells [2]; 10 μM
  pH2AX: 4 foci
HMEC cells [2]; 30 μM
  pH2AX: 7.5 foci
HMEC cells [2]; 100 μM
  pH2AX: 15 foci
HMEC cells [2]; 300 μM
  pH2AX: 21 foci
HMEC cells [3]; 10 μM
  Micronuclei: 0 per 100 cells
HMEC cells [3]; 30 μM
  Micronuclei: 7 per 100 cells
HMEC cells [3]; 100 μM
  Micronuclei: 12 per 100 cells
HMEC cells [3]; 300 μM
  Micronuclei: 20 per 100 cells
HMEC cells [3]; 1000 μM
  Micronuclei: 10 per 100 cells
[1]; determined from data of table 4
  Reference concentration Cref: < 1 µM
[1]; determined from data of table 4, listed as Lead
  Reference concentration Cref: <1 µM
[1]
  Prediction based on algorithm: concentration above which “Group III” risk: > 30 µM
Humans exposed; clinical effects observed
  Onset of signs of saturnism, concentration in blood: Onset of signs of saturnism above 100 μg/l of μg/l of blood
Humans exposed; clinical effects observed, corresponding to 100 μg/l of blood
  Onset of signs of saturnism, corresponding concentration: blood corresponding to approximately 2 μM
